ChEMBL document CHEMBL1155614, “CR377, a new pentaketide antifungal agent isolated from an endophytic fungus” (2000)
Calls of active or inactive are those of the source. No cut-off for these calls is given here.

What was measured:
Candida albicans [1] = assay: Antimicrobial activity against Candida albicans wisconsin at 30 ug by agar diffusion method; format: functional
Candida albicans [2] = assay: Antimicrobial activity against Candida albicans 109 at 30 ug by agar diffusion method; format: functional
Saccharomyces cerevisiae = assay: Antimicrobial activity against Saccharomyces cerevisiae at 30 ug by agar diffusion method; format: functional, organism-based

Compound	zone of inhibition at 30 µg/disc (Candida albicans [1]; read-out: IZ) [mm]	zone of inhibition at 30 µg/disc (Candida albicans [2]; read-out: IZ) [mm]	Activity (Saccharomyces cerevisiae)	inhibition zone (IZ) (Candida albicans [1]) [mm]	inhibition zone (IZ) (Candida albicans [2]) [mm]	inhibition zone (IZ) (Saccharomyces cerevisiae) [mm]
C=C1C(O)=C(C(=O)C(C)CC)C(=O)OC1C (stereo unspecified)	20	24	inactive	–	–	–
NYSTATIN	–	–	–	19	22	21
